According to ChEMBL document CHEMBL1140528, “A novel flavonoid from Lespedeza virgata (Thunb.) DC.: structural elucidation and antioxidative activity” (Bioorg Med Chem Lett, 2007):
Values after ≈ are worked out from the molar mass of the structure shown. Active and inactive are the calls of the source. The calls are words filed in the database; no cut-off is given here.

Key:
Type in all cases: functional
[1] = Antioxidant activity assessed as superoxide radical anion scavenging activity at 0.5 mg/ml by hypoxanthine NBT method
[2] = Antioxidant activity assessed as superoxide radical anion scavenging activity by hypoxanthine NBT method
[3] = Antioxidant activity assessed as superoxide radical anion scavenging activity at 0.2 mg/ml by hypoxanthine NBT method

Q: Which Activity [1] does the source give for `C[C@@H]1O[C@@H](Oc2cc(O)c3c(=O)c(O[C@@H]4O[C@@H](C)[C@H](O)[C@@H](O)[C@H]4O)c(-c4ccc(O)cc4)oc3c2)[C@H](O)[C@H](O)[C@H]1O` here?
A: The Activity was 17.6%.

Q: With `O=c1c(O)c(-c2ccc(O)c(O)c2)oc2cc(O[C@@H]3O[C@H](CO)[C@@H](O)[C@H](O)[C@H]3O)cc(O)c12` as the compound, how does the Activity [1] read?
A: Its Activity is 71.7%.

Q: What does the source list for `COc1cc2c(cc1[C@@H]1CC(=O)c3c(O)c(C)c4c(c3O1)C=CC(C)(C)O4)C=CC(C)(C)O2`?
A: Activity [1]: 95.8%; IC50 [2]: 140 µg/mL (≈ 312 µM); Activity [3]: Active

Q: With `C[C@@H]1O[C@@H](Oc2c(-c3ccc(O)c(O)c3)oc3cc(O)cc(O)c3c2=O)[C@H](O)[C@H](O)[C@H]1O` as the compound, how does the Activity [1] read?
A: Its Activity is 88.9%.

Q: With `C[C@@H]1O[C@@H](Oc2c(-c3ccc(O)cc3)oc3cc(O)cc(O)c3c2=O)[C@H](O)[C@H](O)[C@H]1O` as the compound, how does the Activity [1] read?
A: Its Activity is 29.9%.

Q: Which Activity [1] does the source give for `O=c1c(O[C@@H]2O[C@H](CO)[C@@H](O)[C@H](O)[C@H]2O)c(-c2ccc(O)cc2)oc2cc(O)cc(O)c12` here?
A: Its Activity is 51.7%.
